# Patent US11053204B2, “Pyrimidinyloxy benzene derivatives as herbicides” (FMC Corporation, priority 2015, dated 2021)
# Tests used:
# Assay type in all cases: in vivo
# [1] = system: ragweed (common ragweed, Ambrosia elatior); test: Test A postemergence, visual injury rating
# Summary of the method: (§1)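 Greenhouse pot test, loam/sand soil. Formulation: non-phytotoxic solvent mix plus surfactant. Pre: directed spray onto soil after sowing. Post: plants at 1–2 leaf, 2–10 cm. Rated visually vs untreated controls at ~10 d, 0 (no effect) to 100 (complete control).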
# [2] = system: barnyardgrass (Echinochloa crus-galli); test: Test A postemergence, visual injury rating; conditions: 0 to 100 scale, 0 is no effect, 100 is complete control, approximately 10 days
# Summary of the method: as §1
# [3] = system: blackgrass (Alopecurus myosuroides); test: Test A postemergence, visual injury rating
# Summary of the method: as §1
# [4] = system: pigweed (Amaranthus retroflexus); test: Test A postemergence, visual injury rating
# Summary of the method: as §1
# corn (Zea mays) = test: Test A postemergence, visual injury rating
# Summary of the method: as §1
# [5] = system: Italian ryegrass (Lolium multiflorum); test: Test A postemergence, visual injury rating
# Summary of the method: as §1
# [6] = system: giant foxtail (Setaria faberii); test: Test A postemergence, visual injury rating
# Summary of the method: as §1
# [7] = system: galium (catchweed bedstraw, Galium aparine); test: Test A postemergence, visual injury rating
# Summary of the method: as §1
# kochia (Kochia scoparia) [8] = test: Test A postemergence, visual injury rating
# Summary of the method: as §1
# [9] = system: wheat (Triticum aestivum); test: Test A postemergence, visual injury rating
# Summary of the method: as §1
# [10] = system: ragweed (common ragweed, Ambrosia elatior); test: Test A preemergence, visual injury rating
# Summary of the method: as §1
# [11] = system: barnyardgrass (Echinochloa crus-galli); test: Test A preemergence, visual injury rating
# Summary of the method: as §1
# [12] = system: pigweed (Amaranthus retroflexus); test: Test A preemergence, visual injury rating
# Summary of the method: as §1
# [13] = system: Italian ryegrass (Lolium multiflorum); test: Test A preemergence, visual injury rating
# Summary of the method: as §1
# [14] = system: giant foxtail (Setaria faberii); test: Test A preemergence, visual injury rating
# Summary of the method: as §1
# kochia (Kochia scoparia) [15] = test: Test A preemergence, visual injury rating
# Summary of the method: as §1
# rice (Oryza sativa) = test: Test B flooded paddy test, plant response rating; conditions: 250 g ai/ha; Flood; scale of 0 to 100 where 0 is no effect and 100 is complete control; 13 to 15 days
# Summary of the method: (§2)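 Greenhouse pots flooded to 3 cm above soil at time of treatment received compound via the water, which stayed at that level.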
# [16] = system: barnyardgrass (Echinochloa crus-galli); test: Test B flooded paddy test, plant response rating; conditions: 250 g ai/ha; Flood; scale of 0 to 100 where 0 is no effect and 100 is complete control; 13 to 15 days
# Summary of the method: as §2
# [17] = system: sedge, umbrella (small-flower umbrella sedge, Cyperus difformis); test: Test B flooded paddy test, plant response rating; conditions: 250 g ai/ha; Flood; scale of 0 to 100 where 0 is no effect and 100 is complete control; 13 to 15 days
# Summary of the method: as §2
# [18] = system: ducksalad (Heteranthera limosa); test: Test B flooded paddy test, plant response rating; conditions: 250 g ai/ha; Flood; scale of 0 to 100 where 0 is no effect and 100 is complete control; 13 to 15 days
# Summary of the method: as §2
# [19] = 31 g ai/ha, 0 to 100 scale, 0 is no effect, 100 is complete control, approximately 10 days
# [20] = 125 g ai/ha, 0 to 100 scale, 0 is no effect, 100 is complete control, approximately 10 days
# [21] = 31 g ai/ha, 0 to 100 scale, 0 no effect, 100 complete control
# [22] = 125 g ai/ha, 0 to 100 scale (0 no effect, 100 complete control)
# [23] = 31 g ai/ha, 0 to 100 scale (0 no effect, 100 complete control)
SMILES,"Ragweed plant response rating [1, 20]",Barnyardgrass plant response rating ([2]; 31 g ai/ha),Barnyardgrass plant response rating ([2]; 125 g ai/ha),"Blackgrass plant response rating [3, 20]","Pigweed plant response rating [4, 20]",Corn plant response rating (corn (Zea mays); [20]),"Ryegrass, Italian plant response rating [5, 20]","Foxtail, Giant plant response rating [6, 20]","Galium plant response rating [7, 20]",Kochia plant response rating (kochia (Kochia scoparia) [8]; [20]),"Wheat plant response rating [9, 20]","Plant response rating, Ragweed [10, 21]","Plant response rating, Ragweed [10, 22]","Plant response rating, Barnyardgrass [11, 21]","Plant response rating, Pigweed [12, 21]","Plant response rating, Pigweed [12, 22]","Plant response rating, Ryegrass, Italian [13, 21]","Plant response rating, Ryegrass, Italian [13, 22]","Plant response rating, Foxtail, Giant [14, 21]","Plant response rating, Foxtail, Giant [14, 22]",also measured
O=C(CCC(F)(F)C(F)(F)F)c1c(Br)cccc1Oc1ncc(Cl)cn1 [Compound 110],0,30,60,50,100,50,20,90,100,100,20,0,0,40,40,100,0,70,80,100,"Ragweed plant response rating [1, 19]: 0; Blackgrass plant response rating [3, 19]: 0; Pigweed plant response rating [4, 19]: 90; Corn plant response rating (corn (Zea mays); [19]): 20; Ryegrass, Italian plant response rating [5, 19]: 0; Foxtail, Giant plant response rating [6, 19]: 30; Galium plant response rating [7, 19]: 70; Kochia plant response rating (kochia (Kochia scoparia) [8]; [19]): 100; Wheat plant response rating [9, 19]: 0; Barnyardgrass plant response rating [11, 22]: 100; Plant response rating, Kochia (kochia (Kochia scoparia) [15]; [21]): 10; Plant response rating, Kochia (kochia (Kochia scoparia) [15]; [22]): 100; Plant response rating, Rice (rice (Oryza sativa)): 25; Plant response rating, Barnyardgrass [16]: 25; Plant response rating, Sedge, Umbrella [17]: 90; Plant response rating, Ducksalad [18]: 75"
FC(F)(F)CCCCc1c(Cl)cccc1Oc1ncc(Cl)cn1 [Compound 137],40,20,60,30,100,10,30,60,100,100,10,0,0,0,10,100,0,20,70,100,"Ragweed plant response rating [1, 23]: 10; Blackgrass plant response rating [3, 23]: 10; Pigweed plant response rating [4, 23]: 80; Corn plant response rating (corn (Zea mays); [23]): 10; Ryegrass, Italian plant response rating [5, 23]: 10; Foxtail, Giant plant response rating [6, 23]: 10; Galium plant response rating [7, 23]: 40; Kochia plant response rating (kochia (Kochia scoparia) [8]; [23]): 90; Wheat plant response rating [9, 23]: 0; Plant response rating, Barnyardgrass [11, 22]: 90; Plant response rating, Kochia (kochia (Kochia scoparia) [15]; [21]): 0; Plant response rating, Kochia (kochia (Kochia scoparia) [15]; [22]): 70; Plant response rating, Rice (rice (Oryza sativa)): 50; Plant response rating, Barnyardgrass [16]: 75; Plant response rating, Sedge, Umbrella [17]: 95; Plant response rating, Ducksalad [18]: 95"
